Read-outs that look alike come from different tables or passages of the source.
How the values were obtained:
[1] = H&E staining of major organs; format: in vivo; conditions: xenograft study, heart, liver, spleen, lung, kidney
Procedure: (§1) All procedures were performed in accordance with the Laboratory Animals Welfare Act, the Guide for the Care and Use of Laboratory Animals and the Guidelines and Policies. The rodent experiment was approved by IACUC (Institutional Animal Care and Use Committee) in the Experimental Animal Ethics Committee of West China Hospital (Approval No. 2021672A). 48 female nude mice (BALB/c-nu, 5 weeks, 15–18 g, purchased from Beijing HFK Bio-Technology Co., LTD) were acclimatized for one week in an SPF-grade animal facility (ventilated, 20–25 °C, 50–60% humidity). […] When the tumor volume reached approximately 100 mm^3 (V = L × W^2/2), the mice were randomly divided into six groups (n = 8 per group): (1) Control group (normal saline); (2) 25 mg/kg SKLB-D18-treated group; (3) 50 mg/kg SKLB-D18-treated group; (4) 50 mg/kg BVD-523-treated group; (5) 50 mg/kg XMD8-92-treated group; (6) BVD-523 (50 mg/kg) and XMD8-92 (50 mg/kg) combined treatment group. Drugs were freshly prepared with 5% DMSO, 10% Solutol HS-15, and 85% normal saline on the day of administration. Intragastric administration occurred once daily at the same time for 16 consecutive days. And the body weight and tumor volume of mice were measured every three days. […]
First, the fixed major organs of nude mice were dehydrated, embedded, and sectioned. […] Staining results and tissue morphology were analyzed under a microscope.

380 kinases = assay: Kinase profiling, whole panel; format: biochemical, human; conditions: 1 µM, panel of 380 kinases
Procedure: (§2) 380 kinases inhibitory activities of SKLB-D18 were conducted by Eurofins Cerep SA. The result was illustrated by kinase tree (http://www.kinhub.org/kinmap/).

Pharmacokinetic study = format: in vivo; conditions: rat, plasma, SD rats; for Vd: SD, 1 mg/kg
Procedure: SKLB-D18 was formulated using a composition of 10% DMSO, 10% Solutol, and 80% (20% HP-β-CD). SKLB-D18 was administered via intravenous injection (1 mg/kg) and intragastric administration (10 mg/kg) on SD rats. At various time points post-administration (0.25 h, 0.5 h, 1 h, 2 h, 4 h, 6 h, 8 h, 24 h), blood samples (0.2 mL) were collected and centrifuged (6800 × g, 6 min, 2–8 °C) to separate plasma. Plasma samples were precipitated with methanol, vortexed, and centrifuged (18,000 × g, 4 °C, 7 min); the supernatant was analyzed using LC-MS/MS. Parameters such as AUC0-t, AUC0-∞, Cmax, Tmax, and T1/2 were calculated using Phoenix WinNonlin 7.0.

[2] = Plasma protein binding rate (ultrafiltration); format: in vitro ADME; conditions: SD rat plasma
Procedure: Appropriate amount of SD rat plasma was taken and incubated with the specified concentration of compound at 37 °C for a specified time, and unbound compound solution was obtained by ultrafiltration method, and acetonitrile-containing internal standard compound was added to terminate the reaction, and the remaining compound was quantized by LC-MS to calculate the plasma protein binding rate. Calculation formula: Plasma protein binding rate (%) = (Total blood−Ultrafiltrate)/Total blood * 100%.

MAPK2(h) = assay: Kinase profiling; format: biochemical, human; conditions: 1 μM
Procedure: as §2

Ki-67 = assay: IHC of Ki-67 in xenograft tumor tissue; format: in vivo, nude mice (BALB/c-nu); conditions: 50 mg/kg
Procedure: as §1, with “Intragastric administration occurred once daily at the same time for 16 consecutive days.” left out
Briefly, tumor tissues were dehydrated, embedded, and sectioned. […] Microscopic analysis and imaging were performed, analyzed with ImageJ, and statistical graphs were created using GraphPad Prism 9.5. […]

[3] = test system: MDA-MB-468 cells with knockdown of ERK1/2/5; assay: MTT assay in ERK1/2/5 siRNA knockdown cells; format: cell-based; conditions: Homo sapiens, siRNA co-transfection
Procedure: (§3) The transient transfection processes were performed according to Lipofectamine 3000 transfection procedure details. The transfected cells were used for subsequent experiments after 48 h or 72 h.
(§4) Cancer cells were seeded in a density in 96-well plates (2 × 10^3 cells per well). After incubation for 24 h, cancer cells were treated with compounds (0–20 μM) for 72 h.

[4] = test system: MDA-MB-231 cells with knockdown of ERK1/2/5; assay: MTT assay in ERK1/2/5 siRNA knockdown cells; format: cell-based; conditions: Homo sapiens, siRNA co-transfection
Procedure: as §3, §4

CN(C)Cc1cccc(Nc2ncc(Cl)c(-c3csc(C(=O)NN4CCOCC4)c3)n2)c1 [SKLB-D18, 4-(5-chloro-2-((3-((dimethylamino)methyl)phenyl)amino)pyrimidin-4-yl)-N-morpholinothiophene-2-carboxamide]
toxicity to major organs (H&E staining) [1]: no significant toxicity
number of protein kinases outside of ERK1/2/5 inhibited by >70% (380 kinases): 8
Vd (Pharmacokinetic study; iv, i.v. 1 mg/kg, read-out: Vss): 17 ± 0.568 L/kg
Vd (Pharmacokinetic study; iv, i.v. 1 mg/kg, read-out: Vz): 20.2 ± 1.38 L/kg
AUC(0-inf) (Pharmacokinetic study; iv, i.v. 1 mg/kg): 143 ± 6.6 ng·h/mL
AUC(0-t) (Pharmacokinetic study; iv, i.v. 1 mg/kg): 136 ± 5.73 ng·h/mL
Cmax (Pharmacokinetic study; iv, i.v. 1 mg/kg): 58.7 ± 7.22 ng/mL
half-life (Pharmacokinetic study; iv, i.v. 1 mg/kg): 2.01 ± 0.16 h
clearance (Pharmacokinetic study; iv, i.v. 1 mg/kg, read-out: CL (mL/(min·kg))): 117 ± 5.45 mL/min/kg
bioavailability (Pharmacokinetic study; oral, p.o. 10 mg/kg vs i.v. 1 mg/kg): 22.4%
AUC(0-inf) (Pharmacokinetic study; po, p.o. 10 mg/kg): 457 ng·h/mL
AUC(0-t) (Pharmacokinetic study; po, p.o. 10 mg/kg): 304 ng·h/mL
Cmax (Pharmacokinetic study; po, p.o. 10 mg/kg): 53.7 ng/mL
half-life (Pharmacokinetic study; po, p.o. 10 mg/kg): 3.71 h
fraction unbound [2]: 0.816
Inhibition% (MAPK2(h)): 56%
Ki-67 positive area (Ki-67): less than 20%
IC50 [3]: 19.8 µM
IC50 [4]: 14.8 µM
